Experiments:
[1] = tested on: AAC model of heart failure; experiment: Cardiac blood vessel density (CD31 immunostaining) in AAC model; assay type: in vivo, mouse; conditions: ldCil for 3 weeks
Excerpt: (§1) Male C57BL6 mice (Charles River) underwent AAC surgery at 4-5 weeks of age (between 20 and 22 g). Mice were anaesthetised with isoflurane, placed in a supine position on the procedure table, and an incision made along the ventral underbelly, extending from the xiphoid process of the sternum, down to the groin to reveal the abdominal muscle. The abdominal muscle was then cut the same distance along the linea alba to allow easy reattachment of the two halves. The two sides of the abdominal muscles were clipped back to reveal the abdominal gastrointestinal organs, and these were carefully manoeuvred to expose the underlying abdominal aorta. […] Hearts were halved longitudinally and either snap frozen in liquid nitrogen (for immunohistochemistry) or stored in an RNA later stabilisation solution (for RT-quantitative PCR) (ThermoFisher Scientific, Hertfordshire, UK).
For anti-CD31 (BD Bioscience) detection, 5 μm snap-frozen sections were blocked in 5% normal goat serum in PBS for 1 h, followed by incubation with anti-CD31 primary antibody (clone H-3, sc-376764, Santa Cruz, 1:100) in blocking buffer (5% normal goat serum in PBS) for 2 h at room temperature. […] To quantify cardiac blood vessel density, the number of CD31-positive blood vessels present across an entire area of abdominally-orientated cardiac tissue was counted within a field of view taken at 40× magnification. […]

Myh7 = Myh7 transcript expression by RT-qPCR, whole heart preparations; assay type: in vivo, mouse; conditions: FIG. 10: whole heart, AAC surgery, ldCil 3 weeks after surgery, normalised to Gapdh
Excerpt: as §1, with “aorta. The aorta was cleaned of visceral fats, and carefully separated from parallel vasculature, whilst avoiding any spinal nerves.” for “aorta.”, “UK). […]” for “UK).”
Complementary DNA (cDNA) synthesis was carried out using the Applied Biosystems High Capacity cDNA Reverse Transcription (RT) Kit on a thermal cycler as per the manufacturer's instructions. cDNA was made up to a total quantity of either 600 (most mouse tissue and/or cells), or 1000 ng (human heart tissue). […]

[2] = tested on: pathological angiogenesis; conditions: cited from earlier work
[3] = low doses, 50 μg/kg in vivo or 2 nM in vitro

CC(C)[C@H]1C(=O)N[C@@H](CCCN=C(N)N)C(=O)NCC(=O)N[C@@H](CC(=O)O)C(=O)N[C@H](Cc2ccccc2)C(=O)N1C [Cilengitide, c(f*VRGD)]
cardiac blood vessel density ([1]; AAC surgery): significantly enhanced
cardiac blood vessel density ([1]; SHAM surgery): no significant effect
Myh7 levels (Myh7): restored Myh7 levels back to untreated levels
chemotherapy efficacy in cancer models in vivo ([2]; ldCil with chemotherapy): improve chemotherapy efficacy
effect on quiescent vasculature [2, 3]: no apparent effects
pathological angiogenesis [2, 3]: enhance pathological angiogenesis

Source: patent US20220288156A1, “TREATMENT” (QUEEN MARY UNIVERSITY OF LONDON, priority 2019, published 2022)
